The results in this text go back to paper PMC2952919, “Error-Prone Translesion DNA Synthesis by Escherichia coli DNA Polymerase IV (DinB) on Templates Containing 1,2-dihydro-2-oxoadenine” (Journal of Nucleic Acids, 2010).

The experiment deals with T1, Pol IV (DinB; HT-dinB) (Escherichia coli, UniProt Q47155).
T1 construct: full-length DinB with His tag (plasmid pET16B-DinB), expressed in E. coli BL21(DE3)/pLysS; tag kept
T1 sequence (Q47155 1-351): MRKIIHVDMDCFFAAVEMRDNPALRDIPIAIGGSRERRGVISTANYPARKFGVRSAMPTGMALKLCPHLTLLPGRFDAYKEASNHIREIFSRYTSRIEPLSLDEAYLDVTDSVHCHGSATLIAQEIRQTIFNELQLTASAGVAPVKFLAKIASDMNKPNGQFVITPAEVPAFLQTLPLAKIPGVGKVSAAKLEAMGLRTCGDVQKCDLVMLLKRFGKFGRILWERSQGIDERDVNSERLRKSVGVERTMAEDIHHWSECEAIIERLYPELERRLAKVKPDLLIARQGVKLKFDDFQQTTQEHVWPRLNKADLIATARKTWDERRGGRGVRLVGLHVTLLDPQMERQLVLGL
Description: primer extension, […]-labelled primer, gel imaging. It counts as biochemical. To be noted: insertion opposite 2-oxodA (primer 3/template 2, 50 fmol in 10 μl); Pol IV 50 nM; 20°C, 60 min; pH 7.4, 7.5 mM MgCl2; dNTP 0.02~500 μM; printed Km unit is implausible (a rate unit).

Each structure is given as a SMILES string.

As for `Nc1ccn([C@H]2C[C@H](O)[C@@H](COP(=O)(O)OP(=O)(O)OP(=O)(O)O)O2)c(=O)n1` [dCTP], the “Km” value is 8.5 fmol/mL/min.

As for `Cc1cn([C@H]2C[C@H](O)[C@@H](COP(=O)(O)OP(=O)(O)OP(=O)(O)O)O2)c(=O)[nH]c1=O` [dTTP], the “Km” value amounted to 25.6 fmol/mL/min.
